Columns and labels:
[1] = Pro-drug activity: conversion of amidoxime to amidine in mice; assay type: in vivo; conditions: 20 mpk, IP or oral, FIG. 7B
Experimental: Mice were dosed with 20 mpk of amidoxime, VPC96143, both IP and orally. S1P in plasma and organs was measured at times ASAP, 2 hrs and 24 hrs. The compound amidine, VPC96077, was also measured in plasma and organs at times ASAP, 2 hrs and 24 hrs.
Mice Numbering • 51: dosed with 20 mpk amidoxime VPC96143 administered IP. Plasma extracted ASAP and 2 hrs. Organs harvested at 2 hrs. • 52: dosed with 20 mpk amidoxime VPC96143 administered IP. Plasma extracted ASAP and 24 hrs. Organs harvested at 2 hrs. • 53: dosed with 20 mpk amidoxime VPC96143 administered orally. Plasma extracted ASAP and 2 hrs. Organs harvested at 2 hrs.

human SphK1 = human SphK1 (Homo sapiens (Human), UniProt Q9NYA1); assay: Determination of Ki values, recombinant human SphK1 in Sf9 cell homogenates; assay type: biochemical; conditions: amidine HCl salt; recombinant human SphK1, Sf9 homogenate, 37 C, 20 minutes; read-out: SphK1 inhibitory constant (Ki)
Experimental: (§1) Sphingosine kinase activity was assessed as described previously (Kharel, Y., Lee, S., Snyder, A. H., Sheasley-O'Neill, S. L., Morris, M. A., Setiady, Y., Zhu, R., Zigler, M. A., Burcin, T. L., Ley, K., Tung, K. S. K., Engelhard, V. H., Macdonald, T. L. and Lynch, K. R. Sphingosine kinase 2 is required for modulation of lymphocyte traffic by FTY720. J Biological Chemistry 280: 36865-36872 (2005)). High levels of human sphingosine kinase type 1 (mSK1) and mouse sphingosine kinase type 2 (mSK2) were expressed in Sf9 insect cells by infection with cognate baculoviruses. Crude homogenates were incubated with γ-[^32P]ATP and 10 micromolar D-erythro-sphingosine in the presence of 100 micromolar concentrations of test compounds for 20 minutes at 37 C. The product, radiolabeled S1P, was isolated by extraction into organic solvents after acidification and […] by thin layer chromatography. […]
(§2) Crude homogenates of Sf9 cells containing high levels of recombinant mouse SphK2 or human SphK1 were incubated with γ-[^32P]ATP and various concentrations (0 to 500 micromolar) of D-erythro-sphingosine for 20 minutes […] at 37 C in the presence of fixed concentration of test compound. The product, radiolabeled S1P, was isolated by extraction into organic solvents followed by thin layer chromatography, recovered and radioactivity measured by liquid scintillation counting. […]

mouse SphK2 = mouse SphK2 (Mus musculus (Mouse), UniProt Q9JIA7); assay: Determination of Ki values, recombinant mouse SphK2 in Sf9 cell homogenates; assay type: biochemical; conditions: amidine HCl salt; recombinant mouse SphK2, Sf9 homogenate, 37 C, 20 minutes; read-out: SphK2 inhibitory constant (Ki)
Experimental: as §1, §2

Sequence of mouse SphK2 (Q9JIA7 whole entry): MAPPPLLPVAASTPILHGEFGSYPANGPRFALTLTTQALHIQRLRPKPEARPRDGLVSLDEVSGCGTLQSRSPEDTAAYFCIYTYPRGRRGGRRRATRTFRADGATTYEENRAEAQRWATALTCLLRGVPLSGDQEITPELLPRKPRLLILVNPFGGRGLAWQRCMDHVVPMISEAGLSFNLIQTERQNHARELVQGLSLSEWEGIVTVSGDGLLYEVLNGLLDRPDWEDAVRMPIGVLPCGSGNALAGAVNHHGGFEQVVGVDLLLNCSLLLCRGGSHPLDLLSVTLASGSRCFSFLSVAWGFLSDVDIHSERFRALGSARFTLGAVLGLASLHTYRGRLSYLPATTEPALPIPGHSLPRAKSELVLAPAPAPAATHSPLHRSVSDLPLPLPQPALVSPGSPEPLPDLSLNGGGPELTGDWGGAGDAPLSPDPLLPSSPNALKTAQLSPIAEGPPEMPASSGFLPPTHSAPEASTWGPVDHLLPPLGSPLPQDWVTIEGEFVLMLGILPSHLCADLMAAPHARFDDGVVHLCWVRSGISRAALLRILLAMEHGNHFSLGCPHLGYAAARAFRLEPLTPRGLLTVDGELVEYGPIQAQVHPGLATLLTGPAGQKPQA
Sequence of human SphK1 (Q9NYA1 whole entry): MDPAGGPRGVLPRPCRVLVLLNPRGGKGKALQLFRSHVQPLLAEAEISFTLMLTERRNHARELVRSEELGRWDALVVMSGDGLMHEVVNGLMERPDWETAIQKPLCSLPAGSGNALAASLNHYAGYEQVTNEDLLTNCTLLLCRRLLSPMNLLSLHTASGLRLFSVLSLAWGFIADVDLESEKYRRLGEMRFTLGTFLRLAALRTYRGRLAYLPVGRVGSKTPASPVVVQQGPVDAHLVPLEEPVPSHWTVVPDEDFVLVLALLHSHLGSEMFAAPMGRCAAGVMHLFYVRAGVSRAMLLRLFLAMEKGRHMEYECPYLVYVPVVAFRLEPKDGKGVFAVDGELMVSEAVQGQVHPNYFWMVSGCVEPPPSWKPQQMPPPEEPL

Structure (SMILES) | conversion of amidoxime pro-drug to amidine congener VPC96077 (accumulation in plasma) [1] | Ki (human SphK1) | Ki (mouse SphK2)
CCCCCCCCCCCc1ccc(C(=O)N2CCC[C@H]2/C(N)=N/O)cc1 [VPC96143] | conversion of the amidoxime to the amidine in vivo | – | –
N/C(=N\O)C1(C(=O)Nc2ccc(CCCCCCCCCc3ccccc3)cc2)CC1 [VPC143129] | – | 500 nM | > 10000 nM
